Here are results for 9 compounds from ChEMBL document CHEMBL4334477, “Bioactive Sesquiterpene Lactones Isolated from the Whole Plants of Vernonia cinerea” (J Nat Prod, 2019).

Where only a bound is given, the exact number is not on record here.

For data set [1], the system named is RAW264.7. Nature of the data set: Cytotoxicity against mouse RAW264.7 cells assessed as cell proliferation at 10 ug/ml pretreated with LPS for 24 hrs followed by overnight incubation with compound by MTS assay. It is filed as cell-based.
The test system of data set [2] is RAW264.7. In words: Antiinflammatory activity against mouse RAW264.7 cells assessed as inhibition of LPS-induced nitric oxide overproduction pretreated with LPS for 24 hrs followed by overnight incubation with compound by Griess assay. In kind it is functional, cell-based.
Data set [3] deals with HeLa. In words: Cytotoxicity against human HeLa cells assessed as inhibition of cell proliferation measured after 48 hrs by MTS assay. In kind it is functional, cell-based. On the technique in general: Tetrazolium dyes change colour on reduction, which living cells bring about.

A word on the IC50: it is the midpoint of a concentration-inhibition curve. As for `C/C=C(\C)C(=O)O[C@H]1C[C@@H](C)[C@@]2(O)CC[C@@](C)(/C=C3/OC(=O)C(COC(C)=O)=C31)O2`, in data set [1], the Activity entry is listed as “Non-Toxic”. The half-maximal inhibitory concentration (IC50) came out at 21 µM in data set [2] and 32 µM in data set [3].

As for `C=C(C)C(=O)O[C@H]1C[C@@]23CO[C@@H](C[C@](C)(/C=C4/OC(=O)C(COC(C)=O)=C41)O2)[C@@H]3O`, the IC50 in data set [3] is over 10 µM.

On to `C=C(C)C(=O)O[C@H]1C[C@@]23CO[C@@H](C[C@](C)(/C=C4/OC(=O)C(COC)=C41)O2)[C@@H]3O`, for which the half-inhibitory concentration (IC50) in data set [3] was over 10 µM.

As to `C=C(C)C(=O)O[C@H]1C[C@@H](C)[C@@]2(O)CC[C@@](C)(/C=C3/OC(=O)C(COC(C)=O)=C31)O2`, the Activity result in data set [1] was “Non-Toxic”. Also, the 50% inhibitory concentration (IC50) came out at 23 µM in data set [2] and 35 µM in data set [3].

On to `C=C(C)C(=O)O[C@H]1C[C@@]23CO[C@@H](C[C@](C)(C[C@@]4(OC)OC(=O)C(COC(C)=O)=C14)O2)[C@@H]3O`, for which the IC50 in data set [3] was over 10 µM.

Turning to `C/C=C(\C)C(=O)O[C@H]1C[C@@]23CO[C@@H](C[C@](C)(C[C@@]4(OC)OC(=O)C(COC(C)=O)=C14)O2)[C@@H]3O`, in data set [3], the IC50 is over 10 µM.

As for `C/C=C(\C)C(=O)O[C@H]1C[C@@]23CO[C@@H](C[C@](C)(/C=C4/OC(=O)C(COC)=C41)O2)[C@@H]3O`, the IC50 in data set [3] was over 10 µM.

On to `C/C=C(\C)C(=O)O[C@H]1C[C@@]23CO[C@@H](C[C@](C)(/C=C4/OC(=O)C(COC(C)=O)=C41)O2)[C@@H]3O`, for which the IC50 in data set [3] is over 10 µM.

Regarding `Cc1c2ccncc2c(C)c2c1[nH]c1ccccc12` [ELLIPTECINE], the half-maximal inhibitory concentration (IC50) in data set [3] was 2 µM.
